Experiments:
[1] = compound: CC(=O)O[C@H]1C(=O)[C@@]2(C)[C@H]([C@H](OC(=O)c3ccccc3)[C@]3(O)C[C@H](OC(=O)[C@H](O)[C@@H](NC(=O)c4ccccc4)c4ccccc4)C(C)=C1C3(C)C)[C@]1(OC(C)=O)CO[C@@H]1C[C@@H]2O [Paclitaxel]
[2] = compound: CC(C)NC[C@@H](C(=O)N1CCN(c2ncnc3c2[C@H](C)C[C@H]3O)CC1)c1ccc(Cl)cc1 [Ipatasertib/GDC0068]
[3] = compound: CCNC(=O)c1noc(-c2cc(C(C)C)c(O)cc2O)c1-c1ccc(CN2CCOCC2)cc1 [Luminespib/NVP-AUY922]
[4] = compound: CN(C)C/C=C/C(=O)Nc1ccc(O[C@@H]2CCC[C@@H](Nc3ncc(Cl)c(-c4c[nH]c5ccccc45)n3)C2)cc1 [BSJ-01-175]
[5] = compound: CN(C)CC[C@H](CSc1ccccc1)Nc1ccc(S(=O)(=O)NC(=O)c2ccc(N3CCN(Cc4ccccc4-c4ccc(Cl)cc4)CC3)cc2)cc1[N+](=O)[O-] [ABT-737]
[6] = compound: T1, CN1CC[C@H](c2c(O)cc(O)c3c(=O)cc(-c4ccccc4Cl)oc23)[C@H](O)C1 [Flavopiridol]
[7] = compound: COc1cccc2c1C(=O)c1c(O)c3c(c(O)c1C2=O)C[C@@](O)(C(=O)CO)C[C@@H]3O[C@H]1C[C@H](N)[C@H](O)[C@H](C)O1 [Doxorubicin]
[8] = compound: Cc1nc(-c2cn3c(n2)-c2ccc(-c4cnn(C(C)(C)C(N)=O)c4)cc2OCC3)n(C(C)C)n1 [Taselisib/GDC0032]
[9] = compound: O=C(c1cc(Cc2n[nH]c(=O)c3ccccc23)ccc1F)N1CCN(C(=O)C2CC2)CC1 [Olaparib/AZD2281]
[10] = compound: C=CC(=O)Nc1ccc(C(=O)Nc2[nH]nc3c2CN(C(=O)N[C@H](CN(C)C)c2ccccc2)C3(C)C)cc1 [YKL-5-124]; experiment: GR value, 72 h; higher = faster growth (1 = untreated, <0 = killing);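 also: breast cancer and non-malignant breast epithelial lines, nine half-log doses, viable cells counted by Hoechst and LIVE/DEAD dye imaging versus time-zero plates and DMSO controls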
[11] = compound: CC(=O)c1c(C)c2cnc(Nc3ccc(N4CCN(CCOCCOCCOCCNC(=O)COc5cccc6c5C(=O)N(C5CCC(=O)NC5=O)C6=O)CC4)cn3)nc2n(C2CCCC2)c1=O [BSJ-03-123]; experiment: as above
[12] = compound: CC(=O)c1c(C)c2cnc(Nc3ccc(N4CCNCC4)cn3)nc2n(C2CCCC2)c1=O; experiment: as above
[13] = compound: CCN1CCN(Cc2ccc(Nc3ncc(F)c(-c4cc(F)c5nc(C)n(C(C)C)c5c4)n3)nc2)CC1; experiment: as above
[14] = compound: CCc1cnn2c(NCc3ccc[n+]([O-])c3)cc(N3CCCC[C@H]3CCO)nc12; experiment: as above
[15] = compound: CN(C)C(=O)c1cc2cnc(Nc3ccc(N4CCNCC4)cn3)nc2n1C1CCCC1 [LEE011/Ribociclib]; experiment: as above
[16] = compound: CN(C)C/C=C/C(=O)Nc1ccc(C(=O)N2CCC[C@@H](Nc3ncc(Cl)c(-c4c[nH]c5ccccc45)n3)C2)cc1 [THZ531]; experiment: as above
[17] = compound: T1, Flavopiridol; experiment: as above
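For GR50, 72 h in this document: breast cancer and non-malignant breast epithelial cell lines, Deep Dye Drop or Dye Drop imaging, nine half-log doses, GR normalized to time-zero plates and DMSO-only controls.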

**Q.** MCF10A was tested. Which “GR50, 72 h” value [1] did it give?
**A.** The value was 0.00268 µM.

**Q.** What about the “GR50, 72 h” value [2] of the same cell line?
**A.** The value was > 10 µM.

**Q.** What about the “GR50, 72 h” value [3] of the same cell line?
**A.** The value was 0.00762 µM.

**Q.** What about the “GR50, 72 h” value [4] of the same cell line?
**A.** The value was 1.46 µM.

**Q.** What about the “GR50, 72 h” value [5] of the same cell line?
**A.** Its value is > 10 µM.

**Q.** And the “GR50, 72 h” value [6]?
**A.** The value was 0.152 µM.

**Q.** And the “GR50, 72 h” value [7]?
**A.** Its value is 0.0108 µM.

**Q.** And the “GR50, 72 h” value [8]?
**A.** Its value is 0.119 µM.

**Q.** And the “GR50, 72 h” value [9]?
**A.** The value was > 10 µM.

**Q.** And the GR value ([10]; 0.001 µM)?
**A.** The GR value was 0.472 GR.

**Q.** And the GR value ([10]; 0.003162 µM)?
**A.** Its GR value is 0.235 GR.

**Q.** And the GR value ([10]; 0.01 µM)?
**A.** The GR value was 0.149 GR.

**Q.** What about the GR value ([10]; 0.03162 µM) of the same cell line?
**A.** Its GR value is 0.0788 GR.

**Q.** And the GR value ([10]; 0.1 µM)?
**A.** Its GR value is 0.0321 GR.

**Q.** What about the GR value ([10]; 0.3162 µM) of the same cell line?
**A.** Its GR value is 0.0253 GR.

**Q.** And the GR value ([10]; 1 µM)?
**A.** Its GR value is 0.0094 GR.

**Q.** What about the GR value ([10]; 3.162 µM) of the same cell line?
**A.** The GR value was -0.0385 GR.

**Q.** And the GR value ([10]; 10 µM)?
**A.** Its GR value is -0.153 GR.

**Q.** What about the GR value ([11]; 0.001 µM) of the same cell line?
**A.** The GR value was 0.915 GR.

**Q.** What about the GR value ([11]; 0.003162 µM) of the same cell line?
**A.** Its GR value is 0.877 GR.

**Q.** And the GR value ([11]; 0.01 µM)?
**A.** The GR value was 0.81 GR.

**Q.** What about the GR value ([11]; 0.03162 µM) of the same cell line?
**A.** The GR value was 0.76 GR.

**Q.** What about the GR value ([11]; 0.1 µM) of the same cell line?
**A.** Its GR value is 0.736 GR.

**Q.** What about the GR value ([11]; 0.3162 µM) of the same cell line?
**A.** The GR value was 0.708 GR.

**Q.** And the GR value ([11]; 1 µM)?
**A.** Its GR value is 0.577 GR.

**Q.** And the GR value ([11]; 3.162 µM)?
**A.** Its GR value is 0.502 GR.

**Q.** And the GR value ([11]; 10 µM)?
**A.** The GR value was -0.113 GR.

**Q.** What about the GR value ([12]; 0.0003162 µM) of the same cell line?
**A.** Its GR value is 0.996 GR.

**Q.** What about the GR value ([12]; 0.001 µM) of the same cell line?
**A.** Its GR value is 0.999 GR.

**Q.** And the GR value ([12]; 0.003162 µM)?
**A.** Its GR value is 0.979 GR.

**Q.** And the GR value ([12]; 0.01 µM)?
**A.** The GR value was 0.939 GR.

**Q.** And the GR value ([12]; 0.03162 µM)?
**A.** The GR value was 0.852 GR.

**Q.** What about the GR value ([12]; 0.1 µM) of the same cell line?
**A.** The GR value was 0.748 GR.

**Q.** What about the GR value ([12]; 0.3162 µM) of the same cell line?
**A.** The GR value was 0.653 GR.

**Q.** What about the GR value ([12]; 1 µM) of the same cell line?
**A.** Its GR value is 0.582 GR.

**Q.** What about the GR value ([12]; 3.162 µM) of the same cell line?
**A.** Its GR value is 0.444 GR.

**Q.** And the GR value ([13]; 0.001 µM)?
**A.** The GR value was 0.981 GR.

**Q.** And the GR value ([13]; 0.003162 µM)?
**A.** The GR value was 0.95 GR.

**Q.** What about the GR value ([13]; 0.01 µM) of the same cell line?
**A.** The GR value was 0.882 GR.

**Q.** And the GR value ([13]; 0.03162 µM)?
**A.** The GR value was 0.78 GR.

**Q.** What about the GR value ([13]; 0.1 µM) of the same cell line?
**A.** Its GR value is 0.665 GR.

**Q.** And the GR value ([13]; 0.3162 µM)?
**A.** Its GR value is 0.543 GR.

**Q.** And the GR value ([13]; 1 µM)?
**A.** The GR value was 0.364 GR.

**Q.** What about the GR value ([13]; 3.162 µM) of the same cell line?
**A.** The GR value was 0.255 GR.

**Q.** And the GR value ([13]; 10 µM)?
**A.** The GR value was 0.159 GR.

**Q.** And the GR value ([14]; 0.0001 µM)?
**A.** Its GR value is 1.01 GR.

**Q.** And the GR value ([14]; 0.0003162 µM)?
**A.** Its GR value is 1.01 GR.

**Q.** What about the GR value ([14]; 0.001 µM) of the same cell line?
**A.** Its GR value is 1.02 GR.

**Q.** What about the GR value ([14]; 0.003162 µM) of the same cell line?
**A.** Its GR value is 1.04 GR.

**Q.** What about the GR value ([14]; 0.01 µM) of the same cell line?
**A.** Its GR value is 0.958 GR.

**Q.** What about the GR value ([14]; 0.03162 µM) of the same cell line?
**A.** The GR value was -0.188 GR.

**Q.** And the GR value ([14]; 0.1 µM)?
**A.** The GR value was -0.226 GR.

**Q.** What about the GR value ([14]; 0.3162 µM) of the same cell line?
**A.** Its GR value is -0.223 GR.

**Q.** And the GR value ([14]; 1 µM)?
**A.** The GR value was -0.223 GR.

**Q.** What about the GR value ([15]; 0.001 µM) of the same cell line?
**A.** Its GR value is 0.91 GR.

**Q.** What about the GR value ([15]; 0.003162 µM) of the same cell line?
**A.** The GR value was 0.888 GR.

**Q.** And the GR value ([15]; 0.01 µM)?
**A.** The GR value was 0.821 GR.

**Q.** And the GR value ([15]; 0.03162 µM)?
**A.** The GR value was 0.781 GR.

**Q.** And the GR value ([15]; 0.1 µM)?
**A.** Its GR value is 0.79 GR.

**Q.** And the GR value ([15]; 0.3162 µM)?
**A.** Its GR value is 0.756 GR.

**Q.** What about the GR value ([15]; 1 µM) of the same cell line?
**A.** The GR value was 0.732 GR.

**Q.** What about the GR value ([15]; 3.162 µM) of the same cell line?
**A.** The GR value was 0.665 GR.

**Q.** And the GR value ([15]; 10 µM)?
**A.** Its GR value is 0.434 GR.

**Q.** And the GR value ([16]; 0.0001 µM)?
**A.** The GR value was 0.985 GR.

**Q.** And the GR value ([16]; 0.0003162 µM)?
**A.** The GR value was 0.995 GR.

**Q.** What about the GR value ([16]; 0.001 µM) of the same cell line?
**A.** The GR value was 1.01 GR.

**Q.** And the GR value ([16]; 0.003162 µM)?
**A.** The GR value was 1 GR.

**Q.** And the GR value ([16]; 0.01 µM)?
**A.** Its GR value is 1.01 GR.

**Q.** What about the GR value ([16]; 0.03162 µM) of the same cell line?
**A.** The GR value was 0.981 GR.

**Q.** What about the GR value ([16]; 0.1 µM) of the same cell line?
**A.** The GR value was 0.903 GR.

**Q.** What about the GR value ([16]; 0.3162 µM) of the same cell line?
**A.** The GR value was 0.612 GR.

**Q.** And the GR value ([16]; 1 µM)?
**A.** Its GR value is -0.625 GR.

**Q.** And the GR value ([17]; 0.0001 µM)?
**A.** The GR value was 1.01 GR.

**Q.** What about the GR value ([17]; 0.0003162 µM) of the same cell line?
**A.** The GR value was 1.01 GR.

**Q.** What about the GR value ([17]; 0.001 µM) of the same cell line?
**A.** The GR value was 1.03 GR.

**Q.** What about the GR value ([17]; 0.003162 µM) of the same cell line?
**A.** The GR value was 1.03 GR.

**Q.** And the GR value ([17]; 0.01 µM)?
**A.** Its GR value is 1.04 GR.

**Q.** What about the GR value ([17]; 0.03162 µM) of the same cell line?
**A.** Its GR value is 1.03 GR.

**Q.** What about the GR value ([17]; 0.1 µM) of the same cell line?
**A.** The GR value was 0.822 GR.

**Q.** What about the GR value ([17]; 0.3162 µM) of the same cell line?
**A.** The GR value was -0.322 GR.

**Q.** And the GR value ([17]; 1 µM)?
**A.** Its GR value is -0.67 GR.

— the supplement of paper PMC9663587
